The values that follow come from publication PMC5796017, “Enantiomeric Effect of D-Amino Acid Substitution on the Mechanism of Action of α-Helical Membrane-Active Peptides” (International Journal of Molecular Sciences, 2017).

The test system of one data set is S. aureus ATCC25923. The experiment in a line: Antimicrobial activity, microtiter dilution MIC. Type of data set: cell-based, Staphylococcus aureus. The following applies: G+; MH medium, 5 × 10^5 CFU/mL, 37 °C, 24 h, triplicate. As for the experimental part: (§1) The antimicrobial activity of the peptides was determined by the standard microtiter dilution method and indicated as MIC (minimal inhibitory concentration) as described previously. Briefly, bacteria were cultured in Mueller–Hinton (MH) medium overnight at 37 °C, diluted to a final inoculum of 5 × 10^5 colony-forming units (CFU)/mL with MH and loaded into 96-well microtiter plates (90 μL/well) with serial dilution of peptides (10 μL/well), with a further incubation at 37 °C for 24 h. MIC was expressed as the lowest peptide concentration that inhibited the growth of bacteria. The antimicrobial assays were repeated in triplicate.

The next data set concerns S. epidermidis ATCC12228. The data set is described as follows: Antimicrobial activity, microtiter dilution MIC. It is filed as cell-based, Staphylococcus epidermidis. Conditions: G+; MH medium, 5 × 10^5 CFU/mL, 37 °C, 24 h, triplicate. As for the experimental part:
as §1

In a further data set the test system is P. aeruginosa ATCC27853. The data set is described as follows: Antimicrobial activity, microtiter dilution MIC. Type of data set: cell-based, Pseudomonas aeruginosa. The following applies: G−; MH medium, 5 × 10^5 CFU/mL, 37 °C, 24 h, triplicate. As for the experimental part:
as §1

In data set [1] the test system is human red blood (hRBC) cells. The experiment in a line: Hemolytic activity assay. Type of data set: cell-based. The following applies: for MHC (minimal hemolytic concentration): 2% human RBC in PBS, 37 °C, 2 h, absorbance 578 nm, triplicate. The procedure: The […] of the peptides was measured by a hemolytic activity assay as described previously. Briefly, healthy human RBCs were collected using an anticoagulation tube with EDTAK2 and centrifuged at 1000 rpm for 5 min. The erythrocytes were washed three times, then diluted to a concentration of 2% in phosphate-buffered saline (PBS). The peptides were serially diluted in PBS and 70 μL of the peptide solutions and 2% RBC suspension were added simultaneously to each well of a 96-well plate (round bottom) for a further incubation at 37 °C for 2 h. Then, the plates were centrifuged for 10 min at 3000 rpm and the supernatant (90 μL) was transferred to a 96-well plate (flat bottom). The absorbance of the supernatant was measured on a microplate reader at 578 nm. Erythrocytes in PBS and distilled water were used as the negative (0%) and positive (100%) controls, respectively. The hemolytic activity was calculated as the percentage of experimental group over positive control (100%), after subtraction of negative control (0%). The hemolytic assays were repeated in triplicate.

The next data set concerns BxPC-3. The data set is described as follows: MTT cell viability assay. It is filed as cell-based, human. Conditions: BxPC-3, MTT, 24 h; mean ± SEM of three independent determinations. As for the experimental part: (§2) HeLa, MIA PaCa-2, HPAC, and Bxpc-3 cells were maintained in Dulbecco’s modified Eagle medium) with 10% fetal bovine serum, penicillin (100 U/mL), and streptomycin ([…]) in a humid atmosphere at 37 °C with 5% CO2. The effect of the peptides on the survival of HeLa, MIA PaCa-2, HPAC, and Bxpc-3 cells was determined by 3-(4,5-dimethyl-2-thiazolyl)-2,5-diphenyl-2H-tetrazolium bromide (MTT) assay, as described in a previous study. Briefly, cells were seeded in 96-well plates at a density of 5000 per well. After overnight incubation, cells were incubated, in the absence, or presence of various concentrations of peptides for 24 h. Then, the formazan crystals formed by MTT were dissolved with dimethyl sulfoxide (DMSO) and the absorbance was determined at 492 nm with a microplate reader (GF-M3000; Gaomi Caihong Analytical Instruments Co., Shandong, China). The results were expressed as IC50 values, representing the concentration at which cell viability was reduced by 50%. The cytotoxicity assays were repeated in triplicate.
On the technique in general: Tetrazolium assays rely on reduction of a dye to a coloured formazan, in cell work by metabolically active cells.

For a further data set, the system named is MIA PaCa-2. The experiment in a line: MTT cell viability assay. It is filed as cell-based, human. Conditions: MIA PaCa-2, MTT, 24 h; mean ± SEM of three independent determinations. As for the experimental part: as §2
The next data set concerns HeLa. The experiment in a line: MTT cell viability assay. Type of data set: cell-based, human. The following applies: 24 h, mean ± SEM of three independent determinations. The procedure: as §2
For the next data set, the system named is HPAC. The experiment in a line: MTT cell viability assay. The following applies: 24 h, mean ± SEM of three independent determinations. Type of data set: cell-based, human. As for the experimental part: as §2
The nature of data set [2]: Circular dichroism (CD) secondary structure. The following applies: for [θ]222, benign / [θ]222, 50% TFE: CD, 75 μM peptide, 25 °C; for [θ]222, benign: KP buffer (100 mM KCl, 50 mM KH2PO4/K2HPO4, pH 7.4); for [θ]222, 50% TFE / α-Helix (%), 50% TFE (relative helicity): KP buffer with 50% TFE; for α-Helix (%), 50% TFE (relative helicity) / α-Helix (%), benign: relative to molar ellipticity of V13K in 50% TFE; for α-Helix (%), benign: KP buffer. It is filed as physicochemical. The text has this: The influence of the amino acid substitutions on the peptide secondary structure were investigated using circular dichroism (CD) spectroscopy under benign conditions (KP buffer) and under conditions designed to mimic the hydrophobic environment of the membrane (KP buffer with 50% TFE). D-amino acid substitutions reduced the helicity of the peptide analogs relative to that of peptide V13K, in both KP buffer and KP buffer with 50% TFE. […] As shown in Table 2 and Figure S1, the values of the relative helicity of peptides with polar face substitutions are in the order of K14D (76.99%) > S11D/K14D (51.33%) > S11D/K14D/T15D (38.67%). Similarly, the relative helicity of the peptides with substitutions on the non-polar face follows the same trend: A12D (70.83%) > F9D/A12D (38.26%) > F9D/A12D/V16D (36.41%). Since the values of the relative helicity of the peptides with D-amino acid substitutions on the non-polar face were less than those peptide analogs with the same number of D-amino acid substitutions on the polar face, it is clear that the amino acid residues on the non-polar face may be more important for stabilizing the α-helical structure than residues on the polar face.
The secondary structures of the peptides were examined using a Jasco J-810 CD spectrometer (Jasco, Easton, MD, USA) at 25 °C as described previously. […] The mean residue molar ellipticities were calculated according to the equation [θ] = θ/10lCMn, in which, θ represents the ellipticity in millidegrees, l is the optical path length of the cuvette in centimeters, CM is the peptide concentration in mol/L, and n is the number of residues in the peptide. The mean residue molar ellipticities at 222 nm, [θ]222 (degree·cm^2·dmol^−1), were used to calculate the relative helical content of the peptides.
A general note: Circular dichroism is widely used to follow secondary structure.

Data set [3] has as its system E. coli ATCC25922. The data set is described as follows: Antimicrobial activity, microtiter dilution MIC. Type of data set: cell-based, Escherichia coli. Conditions: G−; MH medium, 5 × 10^5 CFU/mL, 37 °C, 24 h, triplicate. As for the experimental part: as §1
Data set [4] is described as follows: RP-HPLC retention time as relative hydrophobicity. Type of data set: physicochemical. Conditions: 25 °C, used by the paper as measure of relative hydrophobicity. As for the experimental part:
The RP-HPLC retention time has been widely used to represent the relative hydrophobicity of peptides in many studies.The relative hydrophobicity of the peptides was determined by the RP-HPLC retention times at 25 °C. The change in hydrophobicity of the peptides caused by D-amino acid substitutions was mainly due to the disruption of the helical structure.

Data set [5] deals with E. coli ATCC25922. The data set is described as follows: Outer membrane permeability assay (NPN uptake). It is filed as cell-based, Escherichia coli. The following applies: 16 μM peptide, 10 min, excitation 350 nm, emission 420 nm. The text has this: To explore the potential role of the helicity of the peptides in damaging cell membranes, we investigated the disruption of the outer membrane of Escherichia coli (E. coli) by quantifying the fluorescence intensity of 1-N-phenylnaphthylamine (NPN), which is a hydrophobic fluorescent probe. The intensity of NPN is weak in a hydrophilic environment. The fluorescence intensity of NPN gradually increases as it is exposed to a more hydrophobic environment due to damage to the bacterial outer membrane by MAPs.
The outer membrane permeability of the peptides against E. coli ATCC25922 was evaluated using the hydrophobic fluorescent probe NPN, as performed previously. In brief, E. coli was cultured in LB medium at 37 °C until the absorbance of the bacterial suspension at 600 nm was 0.4–0.6, the bacterial pellet was collected by centrifugation and resuspended in a reaction buffer (pH 7.4, 5 mM HEPES, 5 mM NaN3, 0.25 mM NPN) until the absorbance at 600 nm was 0.5. Then, an aliquot of the peptide sample and the bacterial suspension were co-incubated to give a final peptide concentration of 16 μM. The same volume of reaction buffer was used as the negative control. A Shimadzu RF-5301 PC fluorescent spectrometer (excitation wavelength of 350 nm, emission wavelength of 420 nm) was used to collect data continuously for 10 min.

By MIC is commonly meant the smallest concentration in the dilution series that meets the test's criterion for growth inhibition. For orientation: IC50 means the point on the concentration scale where inhibition reaches its midpoint.

Structures are written as SMILES. Values after ≈ are worked out from the molar mass of the structure shown.

Consider `CC[C@H](C)[C@H](NC(=O)[C@H](C)NC(=O)[C@H](CCCCN)NC(=O)[C@H](CC(C)C)NC(=O)[C@H](C)NC(=O)[C@@H](NC(=O)[C@H](Cc1c[nH]cn1)NC(=O)[C@H](CC(C)C)NC(=O)[C@@H](NC(=O)[C@@H](NC(=O)[C@@H](CCCCN)NC(=O)[C@H](CCCCN)NC(=O)[C@H](C)NC(=O)[C@H](CO)NC(=O)[C@H](CCCCN)NC(=O)[C@H](Cc1ccccc1)NC(=O)[C@@H](NC(=O)[C@H](CCCCN)NC(=O)[C@H](CC(C)C)NC(=O)[C@H](Cc1ccccc1)NC(=O)[C@H](CO)NC(=O)[C@H](CCCCN)NC(=O)[C@H](Cc1c[nH]c2ccccc12)NC(=O)[C@H](CCCCN)NC(C)=O)[C@@H](C)O)[C@@H](C)O)C(C)C)[C@@H](C)O)C(=O)N[C@@H](CO)C(=O)N[C@@H](CO)C(N)=O` [Peptide K14D], for which the MIC was found to be 32 µM (≈ 95.7 µg/mL) against S. aureus ATCC25923, 16 µM (≈ 47.9 µg/mL) against S. epidermidis ATCC12228, 16 µM (≈ 47.9 µg/mL) with P. aeruginosa ATCC27853 and 32 µM (≈ 95.7 µg/mL) against E. coli ATCC25922 [3]. Besides, the “MHC (minimal hemolytic concentration)” value in data set [1] came to 125 µM. Besides, the IC50 came out at 20 ± 0.8 µM in the data set on BxPC-3, 17.9 ± 2.3 µM in the data set with MIA PaCa-2, 15.6 ± 4.1 µM in the data set with HeLa and 7.2 ± 5.2 µM with HPAC. In addition, the “[θ]222, benign” value in data set [2] is recorded as −2223.13 degree·cm^2·dmol^−1. Besides, the “[θ]222, 50% TFE” value in data set [2] is recorded as −38,897.2 degree·cm^2·dmol^−1. Besides, in data set [2], the “α-Helix (%), 50% TFE (relative helicity)” value was determined as 76.99%. Moreover, the “α-Helix (%), benign” value in data set [2] came to 4.4%. In addition, the “tR (RP-HPLC retention time), relative hydrophobicity” value in [4] amounted to 41.93 min. Besides, the “Outer membrane permeabilization, NPN fluorescence intensity” value with E. coli ATCC25922 [5] is on record as “enhanced”.
As for `CC[C@H](C)[C@H](NC(=O)[C@H](C)NC(=O)[C@H](CCCCN)NC(=O)[C@H](CC(C)C)NC(=O)[C@H](C)NC(=O)[C@@H](NC(=O)[C@H](Cc1c[nH]cn1)NC(=O)[C@H](CC(C)C)NC(=O)[C@H](NC(=O)[C@@H](NC(=O)[C@H](CCCCN)NC(=O)[C@H](CCCCN)NC(=O)[C@@H](C)NC(=O)[C@H](CO)NC(=O)[C@H](CCCCN)NC(=O)[C@@H](Cc1ccccc1)NC(=O)[C@@H](NC(=O)[C@H](CCCCN)NC(=O)[C@H](CC(C)C)NC(=O)[C@H](Cc1ccccc1)NC(=O)[C@H](CO)NC(=O)[C@H](CCCCN)NC(=O)[C@H](Cc1c[nH]c2ccccc12)NC(=O)[C@H](CCCCN)NC(C)=O)[C@@H](C)O)[C@@H](C)O)C(C)C)[C@@H](C)O)C(=O)N[C@@H](CO)C(=O)N[C@@H](CO)C(N)=O` [F9D/A12D/V16D], the MIC with S. aureus ATCC25923, in the data set on S. epidermidis ATCC12228, with P. aeruginosa ATCC27853 and against E. coli ATCC25922 [3] was 125 µM (≈ 374 µg/mL) each time. Further, the “MHC (minimal hemolytic concentration)” value in data set [1] is above 500 µM. The “Hemolytic activity compared with V13K” value in data set [1] (human red blood cells) is given as “much less hemolytic activity than V13K”. The IC50 in the data set with BxPC-3 is 125 ± 1.8 µM; in the data set on MIA PaCa-2, 57.9 ± 2.8 µM; with HeLa, 125 ± 3.4 µM; in the data set with HPAC, 95.6 ± 1.8 µM. Moreover, the “[θ]222, benign” value in [2] is given as −1907.83 degree·cm^2·dmol^−1. In addition, the “[θ]222, 50% TFE” value in data set [2] is given as −18,393.1 degree·cm^2·dmol^−1. In data set [2], the “α-Helix (%), 50% TFE (relative helicity)” value is on record as 36.41%. Also, the “α-Helix (%), benign” value in data set [2] was determined as 3.8%. The “tR (RP-HPLC retention time), relative hydrophobicity” value in [4] was determined as 39.06 min.
